≈ marks a conversion by molar mass, not a printed value. Where “and” joins values, the source holds several entries; their conditions need not be identical. Identical values can stand only once. Like-named read-outs stand apart in the source and are kept apart here. Residues, ends and D or L forms follow the SMILES beside them.
Key:
[1] = tested on: Swiss mice, kidney; assay: Nephrotoxicity in mice (kidney histopathology); format: in vivo, mouse
How it was run: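 Female Swiss mice (7-week-old, 22–28 g) received lipopeptides in saline either s.c. at 12 mg/kg ×6 every 2 h (total 72 mg/kg, n = 3) or i.p. at 20 or 25 mg/kg ×6 every 2 h (total 120 mg/kg, n = 6; 150 mg/kg, n = 3). Right kidney collected 20 h after last dose, fixed in 10% buffered formalin (pH 7.4), histology scored blinded.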

[2] = tested on: A. baumannii AB5075; format: cell-based, Acinetobacter baumannii; details: AB5075
How it was run: (§1)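 Broth microdilution, CaMHB; MIC read as the antibacterial endpoint against ATCC reference strains and clinical isolates.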

[3] = tested on: A. baumannii ATCC 19606; format: cell-based, Acinetobacter baumannii; details: ATCC 19606
How it was run: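 Susceptibility: microdilution MIC in CaMHB.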

[4] = tested on: A. baumannii FADDI-AB030; format: cell-based, Acinetobacter baumannii; details: FADDI-AB030
How it was run: as §1

[5] = tested on: A. baumannii FADDI-AB034; format: cell-based, Acinetobacter baumannii; details: FADDI-AB034
How it was run: as §1

[6] = tested on: MDR clinical isolates of A. baumannii (n = 210, 200 carbapenem-resistant); format: cell-based, Acinetobacter baumannii
How it was run: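 MICs were determined by broth microdilution in cation-adjusted Mueller–Hinton broth (CaMHB), with clinical isolates tested alongside ATCC strains.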

[7] = tested on: A. baumannii AB5075; assay: In vitro passaging, emergence of resistance; format: cell-based, Acinetobacter baumannii
Protocol: Log-phase cultures (OD600 = 0.5, ~10^8 CFU/mL) of A. baumannii AB5075 were inoculated (1:10, v/v) in 200 μL fresh CaMHB (cation-adjusted Mueller–Hinton broth) containing 2, 8 and 16 μg/mL polymyxin B, colistin, F287, and F365 in a 96-well microplate with 4 biological replicates. The cultures were incubated at 37 °C for 12 h before the next dilution (1:10, v/v) with fresh CaMHB. Successive subculturing was conducted for 7 days.

[8] = in vitro; format: cell-based, human; details: human, wild-type HK-2 cells (kidney proximal tubular), Cell viability, WT
Protocol: (§2) Fig. 6 Transcriptomic changes in human kidney proximal tubular HK-2 cells following treatments with polymyxin B (PMB), colistin (COL), F287, F319, and F365. a Numbers of differentially expressed genes. Distinctive intersections are color-coded. b Cell viability difference (two-tailed Student’s t-test, n = 4 biologically independent cells, Benjamini–Hochberg adjusted P-values) between wild-type HK-2 and KCNJ16 knockout (KO) cells following 24 h treatment with lipopeptides. n.s., not significant; ^*adjusted P < 0.05, ^**adjusted P < 0.01, ^***adjusted P < 0.001. Data are shown as mean ± s.d. and individual data points. c Extracted transcriptional regulatory network from Signor database with 1-step neighbor constraints (enlarged for detail). Source data are provided as a Source Data file.

[9] = tested on: wild-type HK-2 cells; assay: in vitro; format: cell-based, human
Protocol: as §2

[10] = 150 mg/kg/d IP in 6 divided doses every 2 h
[11] = MDR clinical isolates of (n = 210, 200 carbapenem-resistant)

In the case of CC[C@@H]1NC(=O)[C@@H](CC(C)C)NC(=O)[C@H](CCN)NC(=O)[C@@H](NC(=O)[C@H](CN)NC(=O)[C@@H](NC(=O)[C@H](CCN)NC(=O)c2ccc(Cl)cc2Cl)[C@@H](C)O)CCNC(=O)[C@H]([C@@H](C)O)NC(=O)[C@H](CCN)NC(=O)[C@H](CCN)NC1=O [Lipopeptide F365] (HELM PEPTIDE1{[O=C(c1ccc(Cl)cc1Cl)[*:2]].[Dab].T.[NC[C@H](N[*:1])C(=O)[*:2]].[Dab].[Dab].[dL].[Abu].[Dab].[Dab].T}$PEPTIDE1,PEPTIDE1,5:R3-11:R2$$$V2.0), the “Kidney histopathology (SQS Score)” value ([1]; 72 mg/kg/d subcutaneously in six divided doses every 2 h, n = 3) is reported as 0 (SQS 0 = no significant change (overall score, <1)), the SQS score [1, 10] is reported as 0 (SQS 0 = no significant change (overall score, <1)) and the “mice with the SQS score” value [1, 10] is reported as 3/3. For the same compound, the “Kidney histopathology, mice with the SQS score” value ([1]; mouse, in vivo) was 3/3, the “Kidney histological damage, mice with the given grade” value ([1]; mouse, in vivo, ip, 120 mg/kg/day) was 6/6 and the Kidney damage ([1]; mouse, in vivo, ip, 150 mg/kg) was “no significant damage to the kidneys”. The “MIC A. baumannii AB5075” value [2] was 0.5 µg/mL (≈ 0.431 µM), the “MIC A. baumannii ATCC 19606” value [3] was 0.25 µg/mL (≈ 0.215 µM) and the “MIC A. baumannii FADDI-AB030” value [4] was 0.25 µg/mL (≈ 0.215 µM). The “MIC A. baumannii FADDI-AB034” value [5] was 0.25 µg/mL (≈ 0.215 µM), the MIC50 [6, 11] was 0.25 µg/mL (≈ 0.215 µM) and the MIC90 [6, 11] was 1 µg/mL (≈ 0.862 µM). For the same compound, the “potency relative to polymyxin B” value ([6]; MIC50/MIC90, A. baumannii panel) was no more than 4 fold, the Number of isolates ([6]; isolates with MIC 0.05 µg/mL) was 1 and the Number of isolates ([6]; isolates with MIC 0.125 µg/mL) was 7. It also gave a Number of isolates ([6]; isolates with MIC 0.25 µg/mL) of 99, a Number of isolates ([6]; isolates with MIC 0.5 µg/mL) of 81 and a Number of isolates ([6]; isolates with MIC 1 µg/mL) of 8. The Number of isolates ([6]; isolates with MIC 2 µg/mL) was 9, the Number of isolates ([6]; isolates with MIC 4 µg/mL) was 1 and the Number of isolates ([6]; isolates with MIC 8 µg/mL) was 0. The Number of isolates ([6]; isolates with MIC 16 µg/mL) was 1, the Number of isolates ([6]; isolates with MIC 32 µg/mL) was 2 and the Number of isolates ([6]; isolates with MIC 64 µg/mL) was 1. For the same compound, the Number of isolates ([6]; isolates with MIC >64 µg/mL) was 0, the OD600 ([7]; 8 ug/mL, time 0 h, passage 0, replicates rep1-rep4, raw OD600 (blank OD600 0.125333)) was 0.207 and 0.177 and 0.165 and 0.164 and the OD600 ([7]; 8 ug/mL, time 12 h, passage 1, replicates rep1-rep4, raw OD600 (blank OD600 0.114667)) was 0.193 and 0.169 and 0.147 and 0.152. The OD600 ([7]; 8 ug/mL, time 24 h, passage 2, replicates rep1-rep4, raw OD600 (blank OD600 0.0956667)) was 0.091 and 0.092 and 0.09, the OD600 ([7]; 8 ug/mL, time 36 h, passage 3, replicates rep1-rep4, raw OD600 (blank OD600 0.088)) was 0.091 and 0.09 and 0.092 and the OD600 ([7]; 8 ug/mL, time 48 h, passage 4, replicates rep1-rep4, raw OD600 (blank OD600 0.104667)) was 0.091 and 0.094 and 0.101. For the same compound, the OD600 ([7]; 8 ug/mL, time 60 h, passage 5, replicates rep1-rep4, raw OD600 (blank OD600 0.122333)) was 0.112 and 0.116 and 0.106 and 0.123, the OD600 ([7]; 8 ug/mL, time 72 h, passage 6, replicates rep1-rep4, raw OD600 (blank OD600 0.095)) was 0.092 and 0.085 and 0.096 and the OD600 ([7]; 8 ug/mL, time 84 h, passage 7, replicates rep1-rep4, raw OD600 (blank OD600 0.091)) was 0.089 and 0.091 and 0.092 and 0.093. The OD600 ([7]; 8 ug/mL, time 96 h, passage 8, replicates rep1-rep4, raw OD600 (blank OD600 0.0953333)) was 0.09 and 0.092 and 0.097 and 0.093, the OD600 ([7]; 8 ug/mL, time 108 h, passage 9, replicates rep1-rep4, raw OD600 (blank OD600 0.100667)) was 0.111 and 0.118 and 0.121 and 0.105 and the OD600 ([7]; 8 ug/mL, time 120 h, passage 10, replicates rep1-rep4, raw OD600 (blank OD600 0.0983333)) was 0.118 and 0.132 and 0.121 and 0.13. For the same compound, the OD600 ([7]; 8 ug/mL, time 132 h, passage 11, replicates rep1-rep4, raw OD600 (blank OD600 0.0843333)) was 0.12 and 0.124 and 0.123 and 0.117, the OD600 ([7]; 8 ug/mL, time 144 h, passage 12, replicates rep1-rep4, raw OD600 (blank OD600 0.091)) was 0.126 and 0.122 and 0.125 and 0.13 and the OD600 ([7]; 8 ug/mL, time 156 h, passage 13, replicates rep1-rep4, raw OD600 (blank OD600 0.129)) was 0.117 and 0.116 and 0.13 and 0.112. The OD600 ([7]; 8 ug/mL, time 168 h, passage 14, replicates rep1-rep4, raw OD600 (blank OD600 0.101)) was 0.095 and 0.092, the “time to emergence of resistance” value ([7]; 4× MIC, 7-day passaging) was no more than 3 days and the “growth over 7 days” value ([7]; 32× MIC) was “No growth”. The OD600 ([7]; in vitro passaging, concentration 8 ug/mL, time 168 h, passage 14, individual replicates rep1-rep4, not blank-subtracted (blank OD600 0.101)) was 0.093 and 0.094, the viability at 24 h ([8]; Rep1) was 96.4% and the viability at 24 h ([8]; Rep2) was 95.4%. The viability at 24 h ([8]; Rep4) was 95.1% and the “effect on cell viability” value [9] was “no effect on cell viability”.
